Experimental findings from ChEMBL document CHEMBL1137207, “Solution structure of amyloid beta-peptide (25-35) in different media” (J Med Chem, 2004) are described below.

Values joined by “and” are separate entries in the source; they are usually repeats but may differ in a detail not shown here. Equal entries are not always repeated. Where a SMILES comes first, the peptide text is derived from it.

The data set is described as follows: Retention time of the compound. Type of data set: ADME.

Regarding `CC[C@H](C)[C@H](NC(=O)[C@H](C)NC(=O)CNC(=O)[C@H](CCCCN)NC(=O)[C@H](CC(N)=O)NC(=O)[C@H](CO)NC(=O)CN)C(=O)N[C@H](C(=O)NCC(=O)N[C@@H](CC(C)C)C(=O)N[C@@H](CCSC)C(=O)O)[C@@H](C)CC` (H-GSNKGAIIGLM-OH), the tR is 13.37 min and 10.93 min.
